Assay results reported in patent US20220031800A1, “PEPTIDES FOR TREATING NON-EXUDATIVE MACULAR DEGENERATION AND OTHER DISORDERS OF THE EYE” (Allegro Pharmaceuticals, LLC, priority 2019, published 2022).
Square brackets hold non-standard residues; d marks the D form. Peptide text beside a SMILES is read from it. Cya = N[C@@H](CS(=O)(=O)O)C(=O)O

Tested on: study eye of subjects with intermediate non-exudative AMD
Experiment: SD-OCT Analysis 2 (thickness, volume, map coverage of retinal layers)
Type: in vivo, human
Method: Numerous study assessments were conducted at various time points throughout the study. Included among these study assessments were; refractive eye examinations, determinations of BCVA AND low-luminance BCVA, Lanthony D-15 color vision test, measurement of intraocular pressure (IOP), Indirect ophthalmoscopy/dilated fundus examinations and spectral-domain optical coherence tomography (SD-OCT). Also, blood and saliva samples were obtained from each subject for genetic analysis. The above-listed study assessments were performed at the time points indicated in Table 1, below: The OCT scans were analyzed by two (2) unrelated experts. In Analysis #2, the OCT images of study eyes were analyzed to determine mean thickness and mean volume of numerous retinal subfields and layer segments at baseline and at Week 12 for sham eyes and at baseline and at Week 32 for risuteganib eyes, to document any significant differences between groups of eyes based on baseline measurements or changes from baseline in those measurements. In addition to the quantitative analysis of OCT images, OCT Analysis #2 included qualitative assessment of the OCT images to identify GA, pseudodrusen, and disruption of the ELM and EZ layers. FIGS. 9A, 9B and 9C illustrate the level of varying pathology within the ELM based on quantitative mapping that were also assessed, with FIG. 9A (left) showing no ELM disruption, FIG. 9B (center) showing segmental disruption, and FIG. 9C showing diffuse disruption.

[1] = baseline to Week 32, risuteganib arm
[2] = baseline to Week 32, risuteganib arm, paired-eye analysis
[3] = baseline to Week 32, risuteganib nonresponder eyes
[4] = baseline to Week 32, risuteganib responder eyes
[5] = baseline to Week 32, risuteganib super-responder eyes
[6] = change from baseline at Week 32, Risuteganib Nonresponder eyes
[7] = change from baseline at Week 32, Risuteganib Responder eyes

With C[C@@H](O)[C@H](NC(=O)[C@H](CS(=O)(=O)O)NC(=O)CNC(=O)[C@H](CCCNC(=N)N)NC(=O)CN)C(=O)N1CCC[C@H]1C(=O)O [risuteganib, Glycyl-L-arginylglycyl-3-sulfo-L-alanyl-L-threonyl-L-proline] (H-GRG[Cya]TP-OH) the “Change in ELM-RPE mid subfield volume” value [1] was −0.002 mm^3, the “Change in ONL-RPE central subfield volume” value [1] was −0.005 mm^3 and the “Change in ONL-RPE mid subfield volume” value [1] was −0.020 mm^3. The “Change in mean ONL-RPE mid subfield thickness” value [1] was −6.441 μm, the “Change in mean total retinal mid subfield thickness” value [1] was −2.548 μm and the “Change in total retinal mid subfield volume” value [1] was −0.008 mm^3. For the same compound, the “Difference in map coverage, 0 μm RPE-BM” value [1] was 1.282%, the “Difference in map coverage, 50 μm RPE-BM” value [1] was −2.644% and the “Difference in map coverage, 150 μm RPE-BM” value (“Difference … 150 μm RPE-BM” for short) [1] was 2.739%. The “Change in mean ELM-RPE central subfield thickness” value [2] was −2.912 μm, the “Change in mean ONL-RPE central subfield thickness” value [2] was −7.216 μm and the “Change in ONL-RPE mid subfield volume” value [3] was −0.020 mm^3. For the same compound, the “Change in RPE-BM volume” value [3] was 0.037 mm^3, the “Change in mean ONL-RPE mid subfield thickness” value [3] was −6.320 μm and the “Change in mean total retinal central subfield thickness” value [3] was −5.981 μm. For the same compound, the “Change in mean total retinal mid subfield thickness” value [3] was −4.046 μm, the “Change in total retinal central subfield volume” value [3] was −0.004 mm^3 and the “Change in total retinal mid subfield volume” value [3] was −0.012 mm^3. The “Change in total retinal volume” value [3] was 0.091 mm^3, the “Difference in map coverage, <10 μm EZ” value [3] was 1.332% and the “Difference in map coverage, <20 μm EZ” value [3] was 1.288%. The “Change in ELM-RPE central subfield volume” value [4] was −0.002 mm^3, the “Change in RPE-BM volume” value [4] was −0.049 mm^3 and the “Difference in map coverage, 50 μm RPE-BM” value [4] was −3.494%. The “Difference … 150 μm RPE-BM” value [4] was 3.335%, the “Change in mean ELM-RPE central subfield thickness” value (baseline to Week 32, risuteganib responder eyes, paired-eye analysis) was −3.102 μm and the “Change in ELM-RPE central subfield volume” value [5] was −0.003 mm^3. The “Difference … 150 μm RPE-BM” value [5] was 2.943%, the “Change in mean ELM-RPE central subfield thickness” value (baseline to Week 32, risuteganib super-responder eyes, paired-eye analysis) was −3.461 μm and the “Change in mean thickness, ELM-EZ central subfield” value [6] was −1.332 μm. The “Change in mean thickness, ELM-EZ mid subfield” value [6] was 0.754 μm, the “Change in mean thickness, ELM-RPE central subfield” value [6] was −2.722 μm and the “Change in mean thickness, ELM-RPE foveal center” value [6] was −12.189 μm. The “Change in mean thickness, ELM-RPE mid subfield” value [6] was −1.044 μm, the “Change in mean thickness, EZ-RPE central subfield” value [6] was −1.390 μm and the “Change in mean thickness, EZ-RPE foveal center” value [6] was −1.789 μm. For the same compound, the “Change in mean thickness, EZ-RPE mid subfield” value [6] was −1.798 μm, the “Change in mean thickness, Inner retina central subfield” value [6] was 1.896 μm and the “Change in mean thickness, Inner retina mid subfield” value [6] was 2.274 μm. The “Change in mean thickness, ONL-EZ central subfield” value [6] was −6.486 μm, the “Change in mean thickness, ONL-EZ mid subfield” value [6] was −4.522 μm and the “Change in mean thickness, ONL-RPE central subfield” value [6] was −7.877 μm. For the same compound, the “Change in mean thickness, ONL-RPE foveal center” value [6] was −7.626 μm, the “Change in mean thickness, ONL-RPE mid subfield” value [6] was −6.320 μm and the “Change in mean thickness, RPE-BM central subfield” value [6] was −0.118 μm. For the same compound, the “Change in mean thickness, RPE-BM foveal center” value [6] was −3.740 μm, the “Change in mean thickness, RPE-BM mid subfield” value [6] was 1.114 μm and the “Change in mean thickness, Total retinal central subfield” value [6] was −5.981 μm. For the same compound, the “Change in mean thickness, Total retinal foveal center” value [6] was −9.112 μm, the “Change in mean thickness, Total retinal mid subfield” value [6] was −4.046 μm and the “Change in volume, ELM-EZ central subfield” value [6] was −0.001 mm^3. The “Change in volume, ELM-EZ mid subfield” value [6] was 0.002 mm^3, the “Change in volume, ELM-RPE” value [6] was 0.009 mm^3 and the “Change in volume, ELM-RPE central subfield” value [6] was −0.002 mm^3. For the same compound, the “Change in volume, ELM-RPE mid subfield” value [6] was −0.003 mm^3, the “Change in volume, EZ-RPE” value [6] was 0.005 mm^3 and the “Change in volume, EZ-RPE central subfield” value [6] was −0.001 mm^3. For the same compound, the “Change in volume, EZ-RPE mid subfield” value [6] was −0.006 mm^3, the “Change in volume, ONL-EZ central subfield” value [6] was −0.005 mm^3 and the “Change in volume, ONL-EZ mid subfield” value [6] was −0.014 mm^3. The “Change in volume, ONL-RPE” value [6] was −0.026 mm^3, the “Change in volume, ONL-RPE central subfield” value [6] was −0.006 mm^3 and the “Change in volume, ONL-RPE mid subfield” value [6] was −0.020 mm^3. For the same compound, the “Change in volume, RPE-BM” value [6] was 0.037 mm^3, the “Change in volume, RPE-BM central subfield” value [6] was 0.000 mm^3 and the “Change in volume, RPE-BM mid subfield” value [6] was 0.004 mm^3. For the same compound, the “Change in volume, Total retinal” value [6] was 0.091 mm^3, the “Change in volume, Total retinal central subfield” value [6] was −0.004 mm^3 and the “Change in volume, Total retinal mid subfield” value [6] was −0.012 mm^3. The “Map coverage, 0 μm EZ” value [6] was 1.469%, the “Map coverage, 0 μm RPE-BM” value [6] was 1.465% and the “Map coverage, 10 μm EZ” value [6] was 1.332%. For the same compound, the “Map coverage, 20 μm EZ” value [6] was 1.288%, the “Map coverage, 50 μm RPE-BM” value [6] was −1.794% and the “Map coverage, 150 μm RPE-BM” value [6] was 2.143%. The “Map coverage, 250 μm RPE-BM” value [6] was 0.000%, the “Change in mean thickness, ELM-EZ central subfield” value [7] was −2.322 μm and the “Change in mean thickness, ELM-EZ mid subfield” value [7] was −0.967 μm. For the same compound, the “Change in mean thickness, ELM-RPE central subfield” value [7] was −3.102 μm, the “Change in mean thickness, ELM-RPE foveal center” value [7] was 0.000 μm and the “Change in mean thickness, ELM-RPE mid subfield” value [7] was −2.141 μm. The “Change in mean thickness, EZ-RPE central subfield” value [7] was −0.779 μm, the “Change in mean thickness, EZ-RPE foveal center” value [7] was 0.975 μm and the “Change in mean thickness, EZ-RPE mid subfield” value [7] was −1.174 μm. For the same compound, the “Change in mean thickness, Inner retina central subfield” value [7] was 5.864 μm, the “Change in mean thickness, Inner retina mid subfield” value [7] was 5.512 μm and the “Change in mean thickness, ONL-EZ central subfield” value [7] was −5.775 μm. For the same compound, the “Change in mean thickness, ONL-EZ mid subfield” value [7] was −5.386 μm and the “Change in mean thickness, ONL-RPE central subfield” value [7] was −6.555 μm.
